According to publication PMC6597265 (ACS chemical neuroscience, 2019):
Like-named read-outs stand apart in the source and are kept apart here.

How the values were obtained:
[1] = biological target: recombinant rat homomeric GluK1 (Rattus norvegicus, UniProt P22756); experiment: Binding affinity at cloned homomeric GluK1 expressed in sf9 cells, [3H]-NF608
human EAAT1 = human EAAT1 (Homo sapiens, UniProt P43003); experiment: [3H]-D-Asp uptake assay, EAAT1 stably expressed in HEK293 cells; format: cell-based
Sequence of human EAAT1 (P43003 whole entry): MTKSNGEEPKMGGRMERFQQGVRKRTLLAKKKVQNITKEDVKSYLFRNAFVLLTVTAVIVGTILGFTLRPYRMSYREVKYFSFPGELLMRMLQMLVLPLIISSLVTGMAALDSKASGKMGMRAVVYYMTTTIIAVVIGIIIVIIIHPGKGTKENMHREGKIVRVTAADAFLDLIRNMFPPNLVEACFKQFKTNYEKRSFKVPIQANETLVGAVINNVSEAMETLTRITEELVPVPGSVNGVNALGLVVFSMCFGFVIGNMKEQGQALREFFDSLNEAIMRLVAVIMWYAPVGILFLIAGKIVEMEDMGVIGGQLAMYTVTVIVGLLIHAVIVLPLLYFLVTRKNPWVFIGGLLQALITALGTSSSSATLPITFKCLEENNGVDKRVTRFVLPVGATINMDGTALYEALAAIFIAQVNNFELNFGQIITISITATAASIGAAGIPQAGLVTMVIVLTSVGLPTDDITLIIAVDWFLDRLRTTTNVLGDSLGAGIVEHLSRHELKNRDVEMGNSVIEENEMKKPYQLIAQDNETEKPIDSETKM

[2] = biological target: recombinant rat homomeric GluK3 (Rattus norvegicus, UniProt P42264); experiment: Binding affinity at cloned homomeric GluK3 expressed in sf9 cells, [3H]-KA; conditions: for GluK1/K3 (GluK1/GluK3 Ki selectivity ratio): ratio of Ki values at cloned homomeric receptors
Sequence of recombinant rat homomeric GluK3 (P42264 32-919): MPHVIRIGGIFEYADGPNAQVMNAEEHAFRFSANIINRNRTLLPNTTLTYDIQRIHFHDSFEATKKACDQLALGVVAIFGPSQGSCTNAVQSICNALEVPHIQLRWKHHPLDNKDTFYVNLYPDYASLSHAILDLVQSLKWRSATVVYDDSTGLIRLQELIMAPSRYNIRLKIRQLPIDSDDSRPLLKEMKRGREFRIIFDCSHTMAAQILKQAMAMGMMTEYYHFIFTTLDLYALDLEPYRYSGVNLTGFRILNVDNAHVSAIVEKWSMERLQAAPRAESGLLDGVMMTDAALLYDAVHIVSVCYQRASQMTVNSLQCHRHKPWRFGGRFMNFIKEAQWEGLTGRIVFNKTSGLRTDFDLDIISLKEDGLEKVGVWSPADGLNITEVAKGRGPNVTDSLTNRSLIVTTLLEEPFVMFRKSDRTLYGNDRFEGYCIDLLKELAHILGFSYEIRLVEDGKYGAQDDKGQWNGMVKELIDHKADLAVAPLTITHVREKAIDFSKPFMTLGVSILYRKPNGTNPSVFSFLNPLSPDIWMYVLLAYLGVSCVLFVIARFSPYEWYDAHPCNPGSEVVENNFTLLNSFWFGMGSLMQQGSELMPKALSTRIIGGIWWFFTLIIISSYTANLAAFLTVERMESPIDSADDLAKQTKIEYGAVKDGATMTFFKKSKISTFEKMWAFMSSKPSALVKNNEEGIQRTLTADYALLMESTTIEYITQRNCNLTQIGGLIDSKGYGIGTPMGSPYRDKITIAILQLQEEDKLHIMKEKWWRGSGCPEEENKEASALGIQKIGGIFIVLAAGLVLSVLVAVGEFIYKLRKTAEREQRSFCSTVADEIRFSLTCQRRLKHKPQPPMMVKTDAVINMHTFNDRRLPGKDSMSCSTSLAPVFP

native KA receptors [3] = experiment: Binding affinity at native KA receptors, [3H]-KA, rat cortical synaptosomes; conditions: native iGluRs; for IC50 KA: mean of at least three experiments
human EAAT2 = human EAAT2 (Homo sapiens, UniProt P43004); experiment: [3H]-D-Asp uptake assay, EAAT2 stably expressed in HEK293 cells; format: cell-based
Sequence of human EAAT2 (P43004 whole entry): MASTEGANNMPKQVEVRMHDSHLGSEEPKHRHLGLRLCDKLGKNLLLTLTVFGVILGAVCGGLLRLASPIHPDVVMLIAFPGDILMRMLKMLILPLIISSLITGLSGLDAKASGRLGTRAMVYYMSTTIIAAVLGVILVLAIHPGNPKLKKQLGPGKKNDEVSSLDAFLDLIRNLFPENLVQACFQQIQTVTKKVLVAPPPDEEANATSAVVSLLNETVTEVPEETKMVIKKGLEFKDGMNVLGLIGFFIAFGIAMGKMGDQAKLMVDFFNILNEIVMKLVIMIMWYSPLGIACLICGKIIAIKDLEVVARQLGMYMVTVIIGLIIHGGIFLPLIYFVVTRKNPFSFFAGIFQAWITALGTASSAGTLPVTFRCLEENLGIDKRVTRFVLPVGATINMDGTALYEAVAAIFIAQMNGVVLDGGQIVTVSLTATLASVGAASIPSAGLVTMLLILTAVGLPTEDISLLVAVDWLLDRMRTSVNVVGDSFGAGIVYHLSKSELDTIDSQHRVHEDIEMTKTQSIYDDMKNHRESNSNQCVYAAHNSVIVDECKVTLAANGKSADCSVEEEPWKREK

[4] = biological target: recombinant rat homomeric GluK2 (Rattus norvegicus, UniProt P42260); experiment: Binding affinity at cloned homomeric GluK2 expressed in sf9 cells, [3H]-KA
Sequence of recombinant rat homomeric GluK2 (P42260 32-908): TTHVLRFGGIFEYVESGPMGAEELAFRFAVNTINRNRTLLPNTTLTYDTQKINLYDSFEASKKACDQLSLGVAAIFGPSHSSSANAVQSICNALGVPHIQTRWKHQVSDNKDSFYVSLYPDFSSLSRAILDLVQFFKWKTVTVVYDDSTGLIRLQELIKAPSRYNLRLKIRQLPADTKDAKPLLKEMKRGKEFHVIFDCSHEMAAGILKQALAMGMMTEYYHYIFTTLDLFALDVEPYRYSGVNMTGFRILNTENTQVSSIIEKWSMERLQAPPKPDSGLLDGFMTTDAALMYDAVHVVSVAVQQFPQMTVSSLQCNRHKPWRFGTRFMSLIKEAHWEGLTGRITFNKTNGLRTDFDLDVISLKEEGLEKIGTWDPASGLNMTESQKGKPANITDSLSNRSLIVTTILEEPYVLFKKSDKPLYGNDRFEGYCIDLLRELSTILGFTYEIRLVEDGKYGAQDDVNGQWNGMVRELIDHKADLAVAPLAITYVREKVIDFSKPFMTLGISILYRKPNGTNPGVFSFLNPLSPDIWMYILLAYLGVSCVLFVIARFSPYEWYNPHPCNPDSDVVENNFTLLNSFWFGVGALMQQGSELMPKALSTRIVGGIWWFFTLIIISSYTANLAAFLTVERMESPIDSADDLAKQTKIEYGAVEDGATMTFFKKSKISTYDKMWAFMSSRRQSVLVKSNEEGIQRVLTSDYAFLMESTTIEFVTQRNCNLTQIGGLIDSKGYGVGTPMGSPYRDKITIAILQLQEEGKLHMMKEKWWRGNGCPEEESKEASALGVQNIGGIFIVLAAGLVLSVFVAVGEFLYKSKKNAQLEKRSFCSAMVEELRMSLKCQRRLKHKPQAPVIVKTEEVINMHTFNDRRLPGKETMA

human EAAT3 = biological target: T1, human EAAT3 (Homo sapiens, UniProt P43005); experiment: [3H]-D-Asp uptake assay, EAAT3 stably expressed in HEK293 cells; format: cell-based
T1 sequence (P43005 1-524): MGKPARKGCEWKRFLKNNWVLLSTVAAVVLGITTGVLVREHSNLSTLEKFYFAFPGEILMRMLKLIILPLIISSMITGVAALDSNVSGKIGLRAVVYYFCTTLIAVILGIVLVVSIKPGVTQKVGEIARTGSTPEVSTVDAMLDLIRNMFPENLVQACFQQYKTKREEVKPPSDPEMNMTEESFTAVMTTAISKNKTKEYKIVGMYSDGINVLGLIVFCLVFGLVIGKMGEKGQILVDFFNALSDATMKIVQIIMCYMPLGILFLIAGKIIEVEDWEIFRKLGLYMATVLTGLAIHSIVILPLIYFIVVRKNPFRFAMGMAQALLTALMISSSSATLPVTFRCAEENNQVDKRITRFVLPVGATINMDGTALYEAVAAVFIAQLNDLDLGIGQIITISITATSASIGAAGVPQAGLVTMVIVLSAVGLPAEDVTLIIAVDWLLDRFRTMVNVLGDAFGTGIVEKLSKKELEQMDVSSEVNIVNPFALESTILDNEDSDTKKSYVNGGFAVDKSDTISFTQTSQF

native AMPA receptors [5] = experiment: Binding affinity at native AMPA receptors, [3H]-AMPA, rat cortical synaptosomes; conditions: native iGluRs
native NMDA receptors [6] = format: binding; conditions: native iGluRs, rat synaptosomes
native KA receptors [7] = conditions: cited from earlier work
native NMDA receptors [8] = conditions: read-out: Ki NMDA, cited from earlier work
native AMPA receptors [9] = conditions: read-out: IC50 AMPA, cited from earlier work
[10] = Ki GluK3, cloned homomeric receptor, mean ± SEM, at least three experiments
[11] = IC50 EAAT1, HEK293 cells, [3H]-D-Asp uptake

Sequence of recombinant rat homomeric GluK1 (P22756 31-949): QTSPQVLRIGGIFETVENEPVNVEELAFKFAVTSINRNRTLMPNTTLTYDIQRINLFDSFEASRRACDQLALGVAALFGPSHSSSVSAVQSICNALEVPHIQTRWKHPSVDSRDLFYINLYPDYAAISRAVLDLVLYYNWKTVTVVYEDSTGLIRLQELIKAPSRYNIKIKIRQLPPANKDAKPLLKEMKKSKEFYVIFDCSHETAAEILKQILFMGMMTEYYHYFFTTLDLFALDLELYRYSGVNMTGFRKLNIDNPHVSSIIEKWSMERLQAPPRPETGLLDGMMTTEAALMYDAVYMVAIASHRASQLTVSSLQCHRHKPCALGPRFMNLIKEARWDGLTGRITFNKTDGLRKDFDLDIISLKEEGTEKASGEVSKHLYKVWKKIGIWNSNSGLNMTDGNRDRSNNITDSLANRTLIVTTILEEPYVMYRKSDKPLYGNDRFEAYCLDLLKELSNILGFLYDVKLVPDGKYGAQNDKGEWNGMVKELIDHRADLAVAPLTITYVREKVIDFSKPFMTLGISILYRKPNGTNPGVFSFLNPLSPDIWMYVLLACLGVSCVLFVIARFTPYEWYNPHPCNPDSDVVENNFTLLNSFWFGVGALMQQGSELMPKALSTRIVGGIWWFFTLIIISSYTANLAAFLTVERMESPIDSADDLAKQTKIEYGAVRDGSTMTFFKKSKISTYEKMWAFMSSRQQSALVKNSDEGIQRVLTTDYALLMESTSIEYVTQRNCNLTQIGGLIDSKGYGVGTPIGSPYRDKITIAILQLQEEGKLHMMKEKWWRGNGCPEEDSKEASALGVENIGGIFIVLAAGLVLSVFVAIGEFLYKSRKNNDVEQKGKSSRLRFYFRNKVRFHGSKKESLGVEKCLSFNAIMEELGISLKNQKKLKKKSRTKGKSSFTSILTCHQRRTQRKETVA

Row | Compound | Ki [1] | IC50 (human EAAT1; IC50 EAAT1) | Ki [2, 10] | GluK1/K3 (GluK1/GluK3 Ki selectivity ratio) [2] | IC50 KA (native KA receptors [3]) | IC50 (human EAAT2) | Ki ([4]; Ki GluK2) | IC50 (human EAAT3) | pKi NMDA (mean ± SEM, in brackets) (native NMDA receptors [6]) | further results
1 | Cl.O=C(O)C(Cc1c[nH]nn1)[C@@H]1CCN[C@H]1C(=O)O (mixture of isomers) [3p, trans-3-(1-Carboxy-2-(1H-1,2,3-triazol-4-yl)ethyl)pyrrolidine-2-carboxylic Acid Hydrochloride] | 14 ± 2 µM | > 300 µM | 3.1 ± 0.14 µM | 5 | 59 µM | > 300 µM | 55 ± 9 µM | > 300 µM | – | pIC50 KA (mean ± SEM, in brackets) (native KA receptors [3]): 4.23 ± 0.03
2 | CCCC(C(=O)O)[C@@H]1CCN[C@H]1C(=O)O.Cl (relative stereo) [3e, trans-3-(1-Carboxybutyl)pyrrolidine-2-carboxylic Acid Hydrochloride] | – | – | – | – | >100 µM | – | – | – | – | –
3 | CC(C)C(C(=O)O)[C@@H]1CCN[C@H]1C(=O)O.Cl (relative stereo) [3f, trans-3-(1-Carboxy-2-methylpropyl)pyrrolidine-2-carboxylic Acid Hydrochloride] | > 100 µM | 45 µM | > 100 µM | – | >100 µM | 15.8 µM | > 100 µM | 35.5 µM | – | IC50 (human EAAT1; pIC50 EAAT1 (mean ± SEM, in brackets)): 45.7 µM
4 | Cl.O=C(O)C(Cc1ccccc1)[C@@H]1CCN[C@H]1C(=O)O (relative stereo) [3g, trans-3-(1-Carboxy-2-phenylethyl)pyrrolidine-2-carboxylic Acid Hydrochloride] | 46 ± 2.2 µM | – | 5.4 ± 0.42 µM | 9 | 71 µM | 20 µM | 67 ± 4.6 µM | – | – | IC50 (human EAAT1; [11]): 34 µM; selectivity for EAAT1 and EAAT2 over EAAT3 (human EAAT1; from IC50 values): 10 fold; IC50 (human EAAT1; pIC50 EAAT1 (mean ± SEM, in brackets), HEK293 cells, [3H]-D-Asp uptake): 34.7 µM; pIC50 KA (mean ± SEM, in brackets) (native KA receptors [3]): 4.15 ± 0.04
5 | Cl.O=C(O)C(CCc1ccccc1)[C@@H]1CCN[C@H]1C(=O)O (relative stereo) [3h, trans-3-(1-Carboxy-3-phenylpropyl)pyrrolidine-2-carboxylic Acid Hydrochloride] | > 100 µM | > 300 µM | 86 ± 7.3 µM | – | >100 µM | > 300 µM | > 100 µM | > 300 µM | – | –
6 | COC(C(=O)O)[C@@H]1CCN[C@H]1C(=O)O.Cl (relative stereo) [3j-d1, trans-3-(Carboxy(methoxy)methyl)pyrrolidine-2-carboxylic Acid Hydrochloride] | > 100 µM | – | – | – | >100 µM | ~300 µM | – | > 1000 µM | – | IC50 (human EAAT1): > 1000 µM; Ki [2]: 82 ± 11.2 µM; Ki [4]: > 100 µM
7 | Cl.Cl.NC(C(=O)O)[C@@H]1CCN[C@H]1C(=O)O (relative stereo) [3k, trans-3-(Amino(carboxy)methyl)pyrrolidine-2-carboxylic Acid Dihydrochloride] | > 100 µM | – | – | >3 | >100 µM | > 300 µM | – | > 300 µM | 5.06 ± 0.02 | IC50 (human EAAT1): > 300 µM; Ki [2]: 33 ± 2.4 µM; pIC50 AMPA (mean ± SEM, in brackets) (native AMPA receptors [5]): 4.51 ± 0.03; Ki [4]: > 100 µM
8 | Cl.O=C(O)CC(C(=O)O)[C@@H]1CCN[C@H]1C(=O)O (relative stereo) [3l, trans-2-(2-Carboxypyrrolidin-3-yl)succinic Acid Hydrochloride] | 2 ± 0.16 µM | > 1000 µM | 6.4 ± 1.2 µM | – | 23 µM | > 1000 µM | 33 ± 1.1 µM | > 1000 µM | 5.58 ± 0.03 | pIC50 KA (mean ± SEM, in brackets) (native KA receptors [3]): 4.63 ± 0.02
9 | Cl.O=C(O)CCC(C(=O)O)[C@@H]1CCN[C@H]1C(=O)O (relative stereo) [3m, trans-2-(2-Carboxypyrrolidin-3-yl)pentanedioic Acid Hydrochloride] | > 100 µM | > 300 µM | > 100 µM | – | >100 µM | > 300 µM | > 100 µM | > 300 µM | 4.28 ± 0.01 | –
10 | O=C([O-])C(CCO)[C@@H]1CCN[C@H]1C(=O)[O-].[Na+].[Na+] (relative stereo) [3n, Disodium trans-3-(1-Carboxylato-3-hydroxypropyl)pyrrolidine-2-carboxylate] | > 100 µM | – | 52 ± 3 µM | >2 | – | > 300 µM | – | > 300 µM | 4.23 ± 0.06 | IC50 (human EAAT1; [11]): > 300 µM; Ki ([4]; Ki GluK2, cloned homomeric receptor, mean ± SEM, at least three experiments): > 100 µM
11 | Cl.O=C(O)C(CCCO)[C@@H]1CCN[C@H]1C(=O)O (relative stereo) [3o, trans-3-(1-Carboxy-4-hydroxybutyl)pyrrolidine-2-carboxylic Acid Hydrochloride] | > 100 µM | > 300 µM | > 100 µM | – | >100 µM | > 300 µM | > 100 µM | > 300 µM | – | –
12 | Cl.O=C(O)C[C@H]1CCN[C@@H]1C(=O)O [3a, (2S,3R)-3-(Carboxymethyl)pyrrolidine-2-carboxylic Acid Hydrochloride] | – | – | – | 6 | – | – | – | – | – | IC50 KA (native KA receptors [7]; native receptors, ref [67]): 1.6 µM; IC50 (human EAAT1; read-out: IC50 EAAT1, HEK293 cells, [3H]-D-Asp uptake): > 300 µM; Ki (native NMDA receptors [8]; native receptors, ref [67]): 0.5 µM; IC50 (human EAAT2; read-out: IC50 EAAT2, HEK293 cells, [3H]-D-Asp uptake): > 300 µM; IC50 (native AMPA receptors [9]; native receptors, ref [67]): 106 µM; IC50 (human EAAT3; read-out: IC50 EAAT3, HEK293 cells, [3H]-D-Asp uptake): > 300 µM
13 | CC[C@H](C(=O)O)[C@H]1CCN[C@@H]1C(=O)O.Cl [3c-s1, (2S,3R)-3-((S)-1-Carboxypropyl)pyrrolidine-2-carboxylic Acid Hydrochloride] | 18 ± 3.8 µM | – | – | 2 | >100 µM | ~30 µM | – | ~50 µM | 4.88 ± 0.02 | IC50 (human EAAT1): ~100 µM; Ki [2]: 11 ± 2.4 µM; Ki [4]: > 100 µM
14 | CC[C@@H](C(=O)O)[C@H]1CCN[C@@H]1C(=O)O.Cl [3c-s2, (2S,3R)-3-((R)-1-Carboxypropyl)pyrrolidine-2-carboxylic Acid Hydrochloride] | 41 ± 14 µM | – | – | 7 | >100 µM | > 300 µM | – | > 300 µM | – | IC50 (human EAAT1): > 300 µM; Ki [2]: 6.3 ± 1.3 µM; Ki [4]: 70 ± 14 µM
15 | Cl.O=C(O)[C@H]1NCC[C@@H]1[C@@H](C(=O)O)c1ccccc1 [3d-s1, (2S,3R)-3-((R)-Carboxy(phenyl)methyl)pyrrolidine-2-carboxylic Acid Hydrochloride] | > 100 µM | > 300 µM | – | – | >100 µM | ~50 µM | > 100 µM | > 300 µM | – | Ki ([2]; Ki GluK3): > 100 µM
16 | Cl.O=C(O)[C@H]1NCC[C@@H]1[C@H](C(=O)O)c1ccccc1 [3d-s2, (2S,3R)-3-((S)-Carboxy(phenyl)methyl)pyrrolidine-2-carboxylic Acid Hydrochloride] | > 100 µM | > 300 µM | – | – | >100 µM | > 300 µM | > 100 µM | > 300 µM | – | Ki ([2]; Ki GluK3): > 100 µM
17 | Cl.O=C(O)C(Cc1c[nH]nn1)[C@@H]1CCN[C@H]1C(=O)O (stereo partly drawn) [3p-d1, trans-3-(1-Carboxy-2-(1H-1,2,3-triazol-4-yl)ethyl)pyrrolidine-2-carboxylic Acid Hydrochloride] | ~100 µM | > 300 µM | 6.6 ± 0.09 µM | – | >100 µM | > 300 µM | > 100 µM | > 300 µM | – | –
18 | Cl.O=C(O)C(Cc1c[nH]nn1)[C@@H]1CCN[C@H]1C(=O)O (stereo partly drawn) [3p-d2, trans-3-(1-Carboxy-2-(1H-1,2,3-triazol-4-yl)ethyl)pyrrolidine-2-carboxylic Acid Hydrochloride] | – | – | 2.7 ± 0.32 µM | – | 58 µM | – | 43 ± 5.2 µM | – | 4.30 ± 0.03 | pIC50 KA (mean ± SEM, in brackets) (native KA receptors [3]): 4.24 ± 0.01
19 | Cc1onc(O)c1CC(N)C(=O)O (stereo not drawn) [AMPA, α-amino-3-hydroxy-5-methyl-4-isoxazolepropionic acid, reference compound] | – | – | – | – | – | – | – | – | – | GluK1/GluK3 [2]: 0.03; GluK2/GluK3 [2]: >23
20 | CN[C@H](CC(=O)O)C(=O)O [NMDA, N-methyl-D-aspartate, reference compound] | – | – | – | – | – | – | – | – | – | IC50 KA (native KA receptors [7]): >100 µM; Ki (native NMDA receptors [8]): 35 µM; IC50 (native AMPA receptors [9]): > 100 µM
